Data set [1] has as its system female APOE*3Leiden mice. Nature of the data set: Plasma ALT levels (liver function), Method 1. It counts as in vivo. Conditions: for ALT: pooled plasma. As for the experimental part: Alanine transaminase (ALT), as measure for liver function, was measured in pooled samples using the spectrophotometric assay of the Boehringer Reflotron system.
The test system of data set [2] is female APOE*3Leiden mice. Nature of the data set: Total plasma cholesterol, Method 1. The class given is in vivo. Also noted: decreased plasma cholesterol levels (vs control): concentration or dose not given beside the values. To be noted: for Cholesterol: means ± SD. As for the experimental part: Total plasma cholesterol was determined using kit “Chol R1” is from Roche.

For data set [3], the system named is female APOE*3Leiden mice. Nature of the data set: Plasma triglycerides, Method 1. It counts as in vivo. To be noted: for Triglycerides: means ± SD. As for the experimental part: (§1) At the end of each treatment period blood was collected for the indicated lipid and inflammation parameters and at sacrifice livers and plasma/serum were collected.
Triglycerides level was determined using kit “Triglycerides GPO-PAP” from Roche.

The test system of data set [4] is female APOE*3Leiden mice. Conditions: t = 8 weeks; means ± SD, n ≧ 9 mice per group. As for the experimental part:
as §1
P-Selectin, adhesion molecule as inflammation marker, was determined using commercially available Elisa kit.

The test system of data set [5] is female APOE*3Leiden mice. Nature of the data set: Number of lesions in the aortic root, Method 2. The class given is in vivo. To be noted: for influence on number of lesions as compared to the control group: 12 weeks, result in words; for Lesion number per cross section: t = 12 weeks, NO-atorvastatin 13.0 mg/kg, ezetimibe 0.1 then 0.3 mg/kg, means±SD. As for the experimental part: (§2) Fifty-six female APOE*3Leiden mice (age 11-13 weeks, body weight 20-25 gram) were put on a semi-synthetic Western-type diet for 4 weeks and were subsequently treated with or without NO-atorvastatin (13.0 mg/kg b.w. or 0.0108% w/w), ezetimibe (0.1 mg/kg b.w. or 0.000083% w/w until week 6 and 0.3 mg/kg b.w. or 0.000249% w/w from week 6-12) and a combination of NO-atorvastatin with ezetimibe for 12 weeks. At time point t=0, t=4, t=8 and t=12 blood was collected for the measurement of the indicated lipid and inflammation parameters and at sacrifice serum, heart, thoracic aorta and liver were collected. The number of lesions and the number of undiseased segments in the aortic root were measured.
The number of lesions per cross section is presented as absolute values (means±SD).

For data set [6], the system named is female APOE*3Leiden mice. Nature of the data set: Undiseased segments in the aortic root, Method 2. It counts as in vivo. Conditions: 12 weeks; for Undiseased segments (% of total): aortic root, n=12 per group, means±SD. As for the experimental part:
as §2
The number of undiseased segments in the aortic root was counted individually (n=12 per group) and calculated as percentage of all quantified segments. Values are percentages (means±SD).

For data set [7], the system named is female APOE*3Leiden mice. Nature of the data set: Progression of atherosclerosis (overall, lesion area), Method 2. The class given is in vivo. Conditions: 12 weeks; result in words. As for the experimental part: as §2
The mark [8] stands for this setting: t = 8 weeks, NO-atorvastatin 13 mg/kg, ezetimibe 0.1 mg/kg, fenofibrate 3 mg/kg from week 4.
Setting [9] is: t = 0 (before treatment), n ≧ 9 mice per group.
[10] abbreviates: t = 4 weeks, NO-atorvastatin 4.3 mg/kg, fenofibrate 1 mg/kg.
[11] abbreviates: t = 8 weeks, NO-atorvastatin 13 mg/kg, fenofibrate 3 mg/kg from week 4.
The mark [12] stands for this setting: t = 4 weeks, NO-atorvastatin 4.3 mg/kg, ezetimibe 0.1 mg/kg, fenofibrate 1 mg/kg in diet.
The mark [13] stands for this setting: t = 4 weeks, NO-atorvastatin 4.3 mg/kg, ezetimibe 0.1 mg/kg, fenofibrate 1 mg/kg.

Experimental findings from patent US20110077232A1, “COMPOSITIONS COMPRISING ATORVASTATIN 4-(NITROOXY) BUTYL ESTER AND A HYPOLIPIDEMIC DRUG” (Nicox S.A., priority 2008, published 2011) are described below.

As for `CC(C)OC(=O)C(C)(C)Oc1ccc(C(=O)c2ccc(Cl)cc2)cc1` [Fenofibrate, fenofibrate], the “increased ALT levels as compared to the control mice” value in data set [1] (t=4 weeks) is on record as “+43%”; in data set [1] (t=8 weeks), “+60%”. For the same compound, the entries for the “decreased plasma cholesterol levels (vs control)” value in data set [2] (after 4 weeks of treatment) and in data set [2] (after 8 weeks of treatment) were “no effect” and −28%, respectively. For the same compound, the Cholesterol in data set [2] (setting [8]) is given as 16.5 ± 2.2 mmol/L. For the same compound, the values for the Triglycerides in data set [3] (setting [9]), in data set [3] (setting [10]) and in data set [3] (setting [11]) were 2.6 ± 0.7 mmol/L, 2.2 ± 0.5 mmol/L and 1.6 ± 0.5 mmol/L, respectively. In addition, in data set [3] (t=8 weeks), the “decrease of plasma triglycerides compared to the control group” value is recorded as 41%.
For `CC(C)c1c(C(=O)Nc2ccccc2)c(-c2ccccc2)c(-c2ccc(F)cc2)n1CC[C@@H](O)C[C@@H](O)CC(=O)OCCCCO[N+](=O)[O-]` [NO-atorvastatin, atorvastatin 4-(nitrooxy) butyl ester], the figures for the ALT in data set [1] (setting [9]), in data set [1] (setting [12]) and in data set [1] (setting [8]) were 120 U/L, 114 U/L and 91 U/L, respectively. The “decreased plasma cholesterol levels (vs control)” value in data set [2] (after 4 weeks of treatment) is −21%; in data set [2] (after 8 weeks of treatment), −34%. The Cholesterol is reported as 18.6 ± 2.8 mmol/L in data set [2] (setting [9]), 17.7 ± 2.5 mmol/L in data set [2] (setting [13]) and 15.2 ± 3.0 mmol/L in data set [2] (setting [8]). Further, the Triglycerides in data set [3] (setting [9]) is 2.7 ± 0.3 mmol/L; in data set [3] (setting [10]) it was 3.2 ± 0.7 mmol/L; in data set [3] (setting [11]), 2.7 ± 0.5 mmol/L. In data set [4], this compound had a P-Selectin of 190 ± 23 ng/mL. Also, in data set [5], the “influence on number of lesions as compared to the control group” value is reported as “did not influence the number of lesions”. Also, in data set [5], the “Lesion number per cross section” value is given as 3.2 ± 0.7. Moreover, the “Undiseased segments (% of total)” value in data set [6] is given as 26.4 ± 15.0 % of total. Besides, in data set [7], the “effect on progression of atherosclerosis” value is recorded as “reduced atherosclerosis in lesion area”.
As to `O=C1[C@H](CC[C@H](O)c2ccc(F)cc2)[C@@H](c2ccc(O)cc2)N1c1ccc(F)cc1` [Ezetimibe, ezetimibe], the ALT in data set [1] (setting [9]) is reported as 120 U/L; in data set [1] (setting [12]), 92 U/L; in data set [1] (setting [8]), 81 U/L. Further, the “decreased plasma cholesterol levels (vs control)” value in data set [2] (after 4 weeks of treatment) is recorded as −25%; in data set [2] (after 8 weeks of treatment) it was −35%. Further, the Cholesterol in data set [2] (setting [9]) is listed as 18.6 ± 2.6 mmol/L; in data set [2] (setting [13]), 16.8 ± 2.4 mmol/L; in data set [2] (setting [8]) it was 14.9 ± 3.2 mmol/L. Besides, the “influence on number of lesions as compared to the control group” value in data set [5] is reported as “did not influence the number of lesions”. Also, in data set [5], the “Lesion number per cross section” value is 3.5 ± 1.0. Also, the “effect on number of undiseased segments” value in data set [6] (result in words) was “did not affect the number of undiseased segments”. Besides, the “Undiseased segments (% of total)” value in data set [6] is recorded as 16.0 ± 14.8 % of total. Moreover, in data set [7], the “effect on progression of atherosclerosis” value is on record as “did not affect the progression of atherosclerosis”.
